Experimental findings from patent US10167293B2, “[8-(phenylsulfonyl)-3,8-diazabicyclo[3.2.1]oct-3-yl](1H-1,2,3-triazol-4-yl)methanones” (BAYER PHARMA AKTIENGESELLSCHAFT, priority 2016, dated 2019) are described below.

The assay has as its target recombinant human AKR1C3 (Homo sapiens (Human), UniProt P42330). Kind of assay: AKR1C3-inhibitory activity assay (Coumberone to Coumberol fluorescence). To be noted: recombinant human AKR1C3, 15 min pre-incubation, 10 μM NADPH, 0.3 μM Coumberone. The assay is classed as biochemical. As for the experimental part: The AKR1C3-inhibitory activity of the substances of the present invention was measured in the AKR1C3 assay described in the paragraphs below.
Essentially, the enzyme activity is measured by quantification of the generation of Coumberol from Coumberone (Halim et al. J. AM. CHEM. SOC. 2008, 130:14123-14128 and Yee et al. Proc. Natl. Acad. Sci. USA 2006, 103:13304-13309). In this test, the increase of the highly fluorescent Coumberol by NADPH—(nicotinamide adenine dinucleotide phosphate)-dependent reduction of the non-fluorescent Coumberone by AKR1C3 was determined.
The enzyme used was recombinant human AKR1C3 (Aldo-keto reductase family 1 member C3; GenBank Accession No. NM_003739). This was expressed in E. coli as GST (glutathione S transferase) fusion protein and purified by glutathione Sepharose affinity chromatography. The GST was removed by digestion with thrombin and subsequent size exclusion chromatography (Dufort, I., Rheault, P., Huang, X F., Soucy, P., and Luu-The, V., Endocrinology 140, 568-574 (1999)).
For the assay, 50 nl of a 100-fold concentrated solution of the test substance in DMSO were pipetted into a black low-volume 384-well microtiter plate (Greiner Bio-One, Frickenhausen, Germany), 2.5 μl of a solution of AKR1C3 in assay buffer [50 mM potassium phosphate buffer pH 7, 1 mM DTT, 0.0022% (w/v) Pluronic F-127, 0.01% BSA (w/v) and protease inhibitor cocktail (Complete, EDTA-free Protease Inhibitor Cocktail from Roche)] were added and the mixture was incubated for 15 min to allow pre-binding of the substances to the enzyme prior to the enzyme reaction. The enzyme reaction was then started by addition of 2.5 μl of a solution of NADPH (20 μM→final concentration in 5 μl of assay volume is 10 μM) and Coumberone (0.6 μM→final concentration in 5 μl of assay volume is 0.3 μM) in assay buffer, and the resulting mixture was incubated at 22° C. for the reaction time of typically 90 min. The concentration of the AKR1C3 and the reaction time was adapted to the respective activity of the enzyme preparation and adjusted such that the assay was carried out in the linear range. Typical AKR1C3 concentrations were in the region of 1 nM. The reaction was stopped by addition of 2.5 μl of a stop solution consisting of 3 μM EM-1404 as inhibitor (U.S. Pat. No. 6,541,463) in 50 mM HEPES pH7.5 (3 μM EM-1404→final concentration in 7.5 μl of assay volume is 1 μM). The fluorescence of the Coumberole was then measured at 520 nm (excitation at 380 nm) using a suitable measuring instrument (Pherastar from BMG Labtechnologies). The intensity of the fluorescence was used as a measure of the amount of Coumberole formed and thus of the enzyme activity of AKR1C3. The data were normalized (enzyme reaction without inhibitor=0% inhibition; all other assay components, but no enzyme=100% inhibition).

recombinant human AKR1C3, sequence (P42330 whole entry): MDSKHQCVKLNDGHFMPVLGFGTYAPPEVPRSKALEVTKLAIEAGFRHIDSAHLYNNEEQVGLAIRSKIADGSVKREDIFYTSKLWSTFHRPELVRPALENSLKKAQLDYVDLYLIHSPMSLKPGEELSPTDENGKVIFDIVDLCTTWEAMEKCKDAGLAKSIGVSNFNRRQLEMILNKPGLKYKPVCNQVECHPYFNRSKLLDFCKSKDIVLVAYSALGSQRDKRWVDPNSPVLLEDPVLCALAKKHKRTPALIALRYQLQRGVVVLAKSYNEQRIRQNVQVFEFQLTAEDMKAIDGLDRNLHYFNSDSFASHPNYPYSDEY

As a reminder, the IC50 is the point on the concentration scale where inhibition reaches its midpoint. In the case of `O=C(c1cnn[nH]1)N1CC2CCC(C1)N2S(=O)(=O)c1ccc(F)cc1Cl` [Example 50, {8-[(2-chloro-4-fluorophenyl)sulfonyl]-3,8-diazabicyclo[3.2.1]oct-3-yl}(1H-1,2,3-triazol-5-yl)methanone], the IC50 worked out at 0.9 nM.

Take `Cc1cccc(Cl)c1S(=O)(=O)N1C2CCC1CN(C(=O)c1cnn[nH]1)C2` [Example 51, {8-[(2-chloro-6-methylphenyl)sulfonyl]-3,8-diazabicyclo[3.2.1]oct-3-yl}(1H-1,2,3-triazol-5-yl)methanone]: the IC50 was 0.8 nM.

With `Cc1cc(C)cc(S(=O)(=O)N2C3CCC2CN(C(=O)c2cnn[nH]2)C3)c1` [Example 18, {8-[(3,5-dimethylphenyl)sulfonyl]-3,8-diazabicyclo[3.2.1]oct-3-yl}(1H-1,2,3-triazol-5-yl)methanone], the IC50 came out at 1 nM.

On to `O=C(c1c[nH]nn1)N1CC2CCC(C1)N2S(=O)(=O)c1ccccc1C(F)(F)F` [Example 2, 1H-1,2,3-triazol-4-yl[8-{[2-(trifluoromethyl)phenyl]sulfonyl}-3,8-diazabicyclo[3.2.1]oct-3-yl]methanone], for which the IC50 was found to be 1 nM.

In the case of `O=C(c1cnn[nH]1)N1CC2CCC(C1)N2S(=O)(=O)c1ccc(F)c(Cl)c1` [Example 28, {8-[(3-chloro-4-fluorophenyl)sulfonyl]-3,8-diazabicyclo[3.2.1]oct-3-yl}(1H-1,2,3-triazol-5-yl)methanone], the IC50 was 1.2 nM.

As for `O=C(c1cnn[nH]1)N1CC2CCC(C1)N2S(=O)(=O)c1cccc(OC(F)(F)F)c1` [Example 33, 1H-1,2,3-triazol-5-yl[8-{[3-(trifluoromethoxy)phenyl]sulfonyl}-3,8-diazabicyclo[3.2.1]oct-3-yl]methanone], the IC50 came out at 1.8 nM.

Turning to `O=C(c1cnn[nH]1)N1CC2CCC(C1)N2S(=O)(=O)c1ccc(Cl)cc1` [Example 22, {8-[(4-chlorophenyl)sulfonyl]-3,8-diazabicyclo[3.2.1]oct-3-yl}(1H-1,2,3-triazol-5-yl)methanone], the IC50 worked out at 1.5 nM.

Consider `O=C(c1c[nH]nn1)N1CC2CCC(C1)N2S(=O)(=O)c1cc(C(F)(F)F)cc(C(F)(F)F)c1` [Example 10], for which the IC50 worked out at 7.3 nM.

Regarding `O=C(c1cnn[nH]1)N1CC2CCC(C1)N2S(=O)(=O)c1cc(F)c(F)cc1F` [Example 62, 1H-1,2,3-triazol-5-yl{8-[(2,4,5-trifluorophenyl)sulfonyl]-3,8-diazabicyclo[3.2.1]oct-3-yl}methanone], the IC50 came to 2.8 nM.

As for `O=C(c1cnn[nH]1)N1CC2CCC(C1)N2S(=O)(=O)c1cccc([N+](=O)[O-])c1` [Example 44, {8-[(3-nitrophenyl)sulfonyl]-3,8-diazabicyclo[3.2.1]oct-3-yl}(1H-1,2,3-triazol-5-yl)methanone], the IC50 stood at 1.9 nM.

Regarding `Cc1ccc(Br)cc1S(=O)(=O)N1C2CCC1CN(C(=O)c1cnn[nH]1)C2` [Example 65, {8-[(5-bromo-2-methylphenyl)sulfonyl]-3,8-diazabicyclo[3.2.1]oct-3-yl}(1H-1,2,3-triazol-5-yl)methanone], the IC50 was determined as 0.5 nM.

As for `COc1ccc(OC)c(S(=O)(=O)N2C3CCC2CN(C(=O)c2cnn[nH]2)C3)c1` [Example 47, {8-[(2,5-dimethoxyphenyl)sulfonyl]-3,8-diazabicyclo[3.2.1]oct-3-yl}(1H-1,2,3-triazol-5-yl)methanone], the 50% inhibitory concentration (IC50) came to 29.8 nM.

Turning to `O=C(c1cnn[nH]1)N1CC2CCC(C1)N2S(=O)(=O)c1cc(Cl)ccc1F` [Example 61, {8-[(5-chloro-2-fluorophenyl)sulfonyl]-3,8-diazabicyclo[3.2.1]oct-3-yl}(1H-1,2,3-triazol-5-yl)methanone], the IC50 worked out at 1.5 nM.

In the case of `O=C(c1c[nH]nn1)N1CC2CCC(C1)N2S(=O)(=O)c1cc(F)ccc1F` [Example 12, {8-[(2,5-difluorophenyl)sulfonyl]-3,8-diazabicyclo[3.2.1]oct-3-yl}(1H-1,2,3-triazol-4-yl)methanone], the IC50 is 1.1 nM.

With `O=C(c1c[nH]nn1)N1CC2CCC(C1)N2S(=O)(=O)c1ccccc1` [Example 1, [8-(phenylsulfonyl)-3,8-diazabicyclo[3.2.1]oct-3-yl](1H-1,2,3-triazol-4-yl)methanone], the IC50 turned out to be 3.7 nM.

For `O=C(c1cnn[nH]1)N1CC2CCC(C1)N2S(=O)(=O)c1ccc(F)cc1F` [Example 25, {8-[(2,4-difluorophenyl)sulfonyl]-3,8-diazabicyclo[3.2.1]oct-3-yl}(1H-1,2,3-triazol-5-yl)methanone], the IC50 is 2.6 nM.

With `O=C(c1cnn[nH]1)N1CC2CCC(C1)N2S(=O)(=O)c1cccc2c1OCC2` [Example 69, [8-(2,3-dihydro-1-benzofuran-7-ylsulfonyl)-3,8-diazabicyclo[3.2.1]oct-3-yl](1H-1,2,3-triazol-5-yl)methanone], the IC50 came to 0.6 nM.

Turning to `O=C(c1cnn[nH]1)N1CC2CCC(C1)N2S(=O)(=O)c1cccc(Br)c1` [Example 31, {8-[(3-bromophenyl)sulfonyl]-3,8-diazabicyclo[3.2.1]oct-3-yl}(1H-1,2,3-triazol-5-yl)methanone], the IC50 came to 0.5 nM.

Consider `O=C(c1cnn[nH]1)N1CC2CCC(C1)N2S(=O)(=O)c1cc(F)cc(F)c1` [Example 75, sodium 5-({8-[(3,5-difluorophenyl)sulfonyl]-3,8-diazabicyclo[3.2.1]oct-3-yl}carbonyl)-1,2,3-triazol-1-ide], for which the 50% inhibitory concentration (IC50) is 0.7 nM.

In the case of `O=C(c1cnn[nH]1)N1CC2CCC(C1)N2S(=O)(=O)c1ccc(F)c(F)c1F` [Example 59, 1H-1,2,3-triazol-5-yl{8-[(2,3,4-trifluorophenyl)sulfonyl]-3,8-diazabicyclo[3.2.1]oct-3-yl}methanone], the IC50 was 2.2 nM.

As to `N#Cc1ccc(Cl)c(S(=O)(=O)N2C3CCC2CN(C(=O)c2cnn[nH]2)C3)c1` [Example 74, 4-chloro-3-{[3-(1H-1,2,3-triazol-5-ylcarbonyl)-3,8-diazabicyclo[3.2.1]oct-8-yl]sulfonyl}benzonitrile], the IC50 is 5.5 nM.

With `O=C(c1cnn[nH]1)N1CC2CCC(C1)N2S(=O)(=O)c1cccc(C(F)(F)F)c1` [Example 29, 1H-1,2,3-triazol-5-yl[8-{[3-(trifluoromethyl)phenyl]sulfonyl}-3,8-diazabicyclo[3.2.1]oct-3-yl]methanone], the IC50 is 0.9 nM.

Regarding `COc1ccc(C#N)cc1S(=O)(=O)N1C2CCC1CN(C(=O)c1cnn[nH]1)C2` [Example 73, 4-methoxy-3-{[3-(1H-1,2,3-triazol-5-ylcarbonyl)-3,8-diazabicyclo[3.2.1]oct-8-yl]sulfonyl}benzonitrile], the IC50 is 28 nM.

In the case of `COc1cccc(S(=O)(=O)N2C3CCC2CN(C(=O)c2cnn[nH]2)C3)c1` [Example 20, {8-[(3-methoxyphenyl)sulfonyl]-3,8-diazabicyclo[3.2.1]oct-3-yl}(1H-1,2,3-triazol-5-yl)methanone], the concentration for half-maximal inhibition (IC50) was 1 nM.

For the compound `O=C(c1cnn[nH]1)N1CC2CCC(C1)N2S(=O)(=O)c1ccc(F)cc1` [Example 16, {8-[(4-fluorophenyl)sulfonyl]-3,8-diazabicyclo[3.2.1]oct-3-yl}(1H-1,2,3-triazol-5-yl)methanone], the IC50 worked out at 2.2 nM.

As for `O=C(c1c[nH]nn1)N1CC2CCC(C1)N2S(=O)(=O)c1ccc(Cl)s1` [Example 11, {8-[(5-chlorothiophen-2-yl)sulfonyl]-3,8-diazabicyclo[3.2.1]oct-3-yl}(1H-1,2,3-triazol-4-yl)methanone], the concentration for half-maximal inhibition (IC50) was determined as 1.1 nM.

For `O=C(c1cnn[nH]1)N1CC2CCC(C1)N2S(=O)(=O)c1cccc2nsnc12` [Example 54, [8-(2,1,3-benzothiadiazol-4-ylsulfonyl)-3,8-diazabicyclo[3.2.1]oct-3-yl](1H-1,2,3-triazol-5-yl)methanone], the 50% inhibitory concentration (IC50) is 1.2 nM.

In the case of `O=C(c1cnn[nH]1)N1CC2CCC(C1)N2S(=O)(=O)c1cccc(F)c1Cl` [Example 71, {8-[(2-chloro-3-fluorophenyl)sulfonyl]-3,8-diazabicyclo[3.2.1]oct-3-yl}(1H-1,2,3-triazol-5-yl)methanone], the IC50 was 0.8 nM.
